PubChem BioAssay (NCI)
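48-hour exposure; five concentrations; linearly interpolated endpoints. GI50 marks 50% less growth. TGI is the concentration that stops growth completely.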

Legend:
Test in all cases: DTP human tumour cell line panel, 48 h
HCT-116 colon = test system: HCT-116 colon
SF-539 CNS = test system: SF-539 CNS
SK-MEL-2 melanoma = test system: SK-MEL-2 melanoma
HOP-62 NSCLC = test system: HOP-62 NSCLC
MDA-MB-435 = test system: MDA-MB-435
A549 NSCLC = test system: A549 NSCLC
SK-MEL-5 melanoma = test system: SK-MEL-5 melanoma
UO-31 renal = test system: UO-31 renal
RPMI-8226 leukemia = test system: RPMI-8226 leukemia
PC-3 prostate = test system: PC-3 prostate
T-47D breast = test system: T-47D breast
TK-10 renal = test system: TK-10 renal
UACC-257 melanoma = test system: UACC-257 melanoma
MDA-MB-231 breast = test system: MDA-MB-231 breast
SK-OV-3 ovarian = test system: SK-OV-3 ovarian
SN12C renal = test system: SN12C renal
MOLT-4 leukemia = test system: MOLT-4 leukemia
MCF7 breast = test system: MCF7 breast
HCC-2998 colon = test system: HCC-2998 colon
HL-60(TB) leukemia = test system: HL-60(TB) leukemia
IGROV1 ovarian = test system: IGROV1 ovarian
SW-620 colon = test system: SW-620 colon
CAKI-1 renal = test system: CAKI-1 renal
U251 CNS = test system: U251 CNS
UACC-62 melanoma = test system: UACC-62 melanoma
ACHN renal = test system: ACHN renal
KM12 colon = test system: KM12 colon
HOP-92 NSCLC = test system: HOP-92 NSCLC
CCRF-CEM leukemia = test system: CCRF-CEM leukemia
OVCAR-5 ovarian = test system: OVCAR-5 ovarian
OVCAR-8 ovarian = test system: OVCAR-8 ovarian
SF-268 CNS = test system: SF-268 CNS
LOX IMVI melanoma = test system: LOX IMVI melanoma
MALME-3M melanoma = test system: MALME-3M melanoma
BT-549 breast = test system: BT-549 breast
NCI-H23 lung = test system: NCI-H23 lung
M14 melanoma = test system: M14 melanoma
A498 renal = test system: A498 renal
SF-295 CNS = test system: SF-295 CNS
K-562 leukemia = test system: K-562 leukemia
COLO 205 colon = test system: COLO 205 colon
DU-145 prostate = test system: DU-145 prostate
HT29 colon = test system: HT29 colon
786-0 renal = test system: 786-0 renal
SK-MEL-28 melanoma = test system: SK-MEL-28 melanoma
HCT-15 colon = test system: HCT-15 colon
NCI-H522 lung = test system: NCI-H522 lung
NCI/ADR-RES ovarian = test system: NCI/ADR-RES ovarian
EKVX NSCLC = test system: EKVX NSCLC
NCI-H460 lung = test system: NCI-H460 lung
OVCAR-4 ovarian = test system: OVCAR-4 ovarian
SR leukemia = test system: SR leukemia
NCI-H226 lung = test system: NCI-H226 lung
SNB-19 CNS = test system: SNB-19 CNS
SNB-75 CNS = test system: SNB-75 CNS
HS 578T breast = test system: HS 578T breast
OVCAR-3 ovarian = test system: OVCAR-3 ovarian

## Oc1cccc(-c2nc(-c3n[nH]c(=S)n3-c3ccccc3)cc3c2[nH]c2ccccc23)c1
HCT-116 colon
  GI50: 3.28 µM
  TGI: 9.82 µM
SF-539 CNS
  GI50: 1.8 µM
  TGI: 3.96 µM
SK-MEL-2 melanoma
  GI50: 1.88 µM
  TGI: 6.08 µM
HOP-62 NSCLC
  GI50: 2.24 µM
  TGI: 7.96 µM
MDA-MB-435
  GI50: 1.26 µM
  TGI: 4.5 µM
A549 NSCLC
  GI50: 2.89 µM
  TGI: 11.1 µM
SK-MEL-5 melanoma
  GI50: 3.15 µM
  TGI: 11 µM
UO-31 renal
  GI50: 2.09 µM
  TGI: 11.7 µM
RPMI-8226 leukemia
  GI50: 2.69 µM
  TGI: 7.86 µM
PC-3 prostate
  GI50: 2.63 µM
  TGI: 10.9 µM
T-47D breast
  GI50: 2.14 µM
  TGI: 8.18 µM
TK-10 renal
  GI50: 4.08 µM
  TGI: 16.3 µM
UACC-257 melanoma
  GI50: 3.22 µM
  TGI: 9.88 µM
MDA-MB-231 breast
  GI50: 3.19 µM
  TGI: 13 µM
SK-OV-3 ovarian
  GI50: 3.02 µM
  TGI: 8.72 µM
SN12C renal
  GI50: 4.03 µM
  TGI: 15.5 µM
MOLT-4 leukemia
  GI50: 3.78 µM
  TGI: 14 µM
MCF7 breast
  GI50: 3.37 µM
  TGI: 13.6 µM
HCC-2998 colon
  GI50: 2.17 µM
  TGI: 4.53 µM
HL-60(TB) leukemia
  GI50: 3.38 µM
  TGI: 8.98 µM
IGROV1 ovarian
  GI50: 2.29 µM
  TGI: 11.2 µM
SW-620 colon
  GI50: 3.63 µM
  TGI: 11.9 µM
CAKI-1 renal
  GI50: 2.81 µM
  TGI: 11.9 µM
U251 CNS
  GI50: 2.98 µM
  TGI: 11 µM
UACC-62 melanoma
  GI50: 2.4 µM
  TGI: 8.77 µM
ACHN renal
  GI50: 3.95 µM
  TGI: 14.6 µM
KM12 colon
  GI50: 3.15 µM
  TGI: 11.7 µM
HOP-92 NSCLC
  GI50: 4.31 µM
  TGI: 18.1 µM
CCRF-CEM leukemia
  GI50: 3.85 µM
  TGI: 18.7 µM
OVCAR-5 ovarian
  GI50: 4.38 µM
  TGI: 15.7 µM
OVCAR-8 ovarian
  GI50: 3.09 µM
  TGI: 8.83 µM
SF-268 CNS
  GI50: 3.56 µM
  TGI: 14.7 µM
LOX IMVI melanoma
  GI50: 1.8 µM
  TGI: 3.83 µM
MALME-3M melanoma
  GI50: 4.05 µM
  TGI: 17.4 µM
BT-549 breast
  GI50: 2.67 µM
  TGI: 6.8 µM
NCI-H23 lung
  GI50: 3.97 µM
  TGI: 19.7 µM
M14 melanoma
  GI50: 2.72 µM
  TGI: 10.3 µM
A498 renal
  GI50: 2.15 µM
  TGI: 5.8 µM
SF-295 CNS
  GI50: 2.16 µM
  TGI: 5.75 µM
K-562 leukemia
  GI50: 3.16 µM
  TGI: 21.6 µM
COLO 205 colon
  GI50: 2.45 µM
  TGI: 7.22 µM
DU-145 prostate
  GI50: 2.57 µM
  TGI: 7.02 µM
HT29 colon
  GI50: 2.55 µM
  TGI: 6.18 µM
786-0 renal
  GI50: 3.19 µM
  TGI: 11 µM
SK-MEL-28 melanoma
  GI50: 1.81 µM
  TGI: 7.28 µM
HCT-15 colon
  GI50: 2.88 µM
  TGI: 10.9 µM
NCI-H522 lung
  GI50: 1.8 µM
  TGI: 4.98 µM
NCI/ADR-RES ovarian
  GI50: 13.2 µM
  TGI: 69.7 µM
EKVX NSCLC
  GI50: 4 µM
  TGI: 23.4 µM
NCI-H460 lung
  GI50: 3.1 µM
  TGI: 9.5 µM
OVCAR-4 ovarian
  GI50: 3.79 µM
  TGI: 17.3 µM
SR leukemia
  GI50: 3.07 µM
  TGI: > 100 µM
NCI-H226 lung
  GI50: 3.92 µM
  TGI: 18.6 µM
SNB-19 CNS
  GI50: 3.11 µM
  TGI: 11.4 µM
SNB-75 CNS
  GI50: 1.72 µM
  TGI: 5.89 µM
HS 578T breast
  GI50: 3.43 µM
  TGI: 24.6 µM
OVCAR-3 ovarian
  GI50: 2.18 µM
  TGI: 5.73 µM

## Cc1cc(Nc2ccc3c(c2)OCO3)c2cc3c(cc2n1)OCO3
HCT-116 colon
  GI50: 1.42 µM
  TGI: 15.8 µM
SF-539 CNS
  GI50: 2.12 µM
  TGI: 6.73 µM
SK-MEL-2 melanoma
  GI50: 4.54 µM
  TGI: 21.5 µM
HOP-62 NSCLC
  GI50: 3.84 µM
  TGI: 20.3 µM
MDA-MB-435
  GI50: 0.265 µM
  TGI: 1.37 µM
A549 NSCLC
  GI50: 1.37 µM
  TGI: 11.6 µM
SK-MEL-5 melanoma
  GI50: 0.821 µM
  TGI: 14.1 µM
UO-31 renal
  GI50: 1.63 µM
  TGI: 9.1 µM
RPMI-8226 leukemia
  GI50: 0.526 µM
  TGI: 3.6 µM
PC-3 prostate
  GI50: 1.13 µM
  TGI: 11.5 µM
T-47D breast
  GI50: 4.69 µM
  TGI: 38.6 µM
TK-10 renal
  GI50: 5.62 µM
  TGI: 32.5 µM
UACC-257 melanoma
  GI50: 3.57 µM
  TGI: 23.4 µM
MDA-MB-231 breast
  GI50: 2.58 µM
  TGI: 17 µM
SK-OV-3 ovarian
  GI50: 3.22 µM
  TGI: 30.1 µM
SN12C renal
  GI50: 4.14 µM
  TGI: 31.3 µM
MOLT-4 leukemia
  GI50: 2.51 µM
  TGI: > 54.5 µM
MCF7 breast
  GI50: 0.376 µM
  TGI: 15 µM
HCC-2998 colon
  GI50: 2.33 µM
  TGI: 6.47 µM
HL-60(TB) leukemia
  GI50: 0.745 µM
  TGI: > 19.9 µM
IGROV1 ovarian
  GI50: 0.318 µM
  TGI: 3.8 µM
SW-620 colon
  GI50: 0.756 µM
  TGI: 15.4 µM
CAKI-1 renal
  GI50: 2.55 µM
  TGI: 30.7 µM
U251 CNS
  GI50: 2.8 µM
  TGI: 14.2 µM
UACC-62 melanoma
  GI50: 2.08 µM
  TGI: 16.5 µM
ACHN renal
  GI50: 6.23 µM
  TGI: 26.6 µM
KM12 colon
  GI50: 1.05 µM
  TGI: 14.4 µM
HOP-92 NSCLC
  GI50: 1.48 µM
  TGI: 9.07 µM
CCRF-CEM leukemia
  GI50: 1.92 µM
  TGI: 10.2 µM
OVCAR-5 ovarian
  GI50: 4.24 µM
  TGI: 41.1 µM
OVCAR-8 ovarian
  GI50: 3.13 µM
  TGI: 15.5 µM
SF-268 CNS
  GI50: 3.69 µM
  TGI: 19.3 µM
LOX IMVI melanoma
  GI50: 1.85 µM
  TGI: 11.5 µM
MALME-3M melanoma
  GI50: 2.08 µM
  TGI: 20.9 µM
BT-549 breast
  GI50: 4.26 µM
  TGI: 26.2 µM
NCI-H23 lung
  GI50: 3.93 µM
  TGI: 23.7 µM
M14 melanoma
  GI50: 1.19 µM
  TGI: 6.99 µM
A498 renal
  GI50: 0.812 µM
  TGI: 4.72 µM
SF-295 CNS
  GI50: 0.563 µM
  TGI: 8.85 µM
K-562 leukemia
  GI50: 1.24 µM
  TGI: > 100 µM
COLO 205 colon
  GI50: 1.31 µM
  TGI: 4.03 µM
DU-145 prostate
  GI50: 2.91 µM
  TGI: 12.3 µM
HT29 colon
  GI50: 0.878 µM
  TGI: 18.8 µM
786-0 renal
  GI50: 4.2 µM
  TGI: 17.8 µM
SK-MEL-28 melanoma
  GI50: 1.93 µM
  TGI: 14.1 µM
HCT-15 colon
  GI50: 0.9 µM
  TGI: 16.6 µM
NCI-H522 lung
  GI50: 2.35 µM
  TGI: 10 µM
NCI/ADR-RES ovarian
  GI50: 2.15 µM
  TGI: 18.5 µM
EKVX NSCLC
  GI50: 1.64 µM
  TGI: 13.2 µM
NCI-H460 lung
  GI50: 2.3 µM
  TGI: 12.3 µM
OVCAR-4 ovarian
  GI50: 5.2 µM
  TGI: 44.4 µM
SR leukemia
  GI50: 0.532 µM
  TGI: > 84.4 µM
NCI-H226 lung
  GI50: 2.94 µM
  TGI: 16.4 µM
SNB-19 CNS
  GI50: 2.38 µM
  TGI: 20.9 µM
SNB-75 CNS
  GI50: 0.766 µM
  TGI: 7.38 µM
HS 578T breast
  GI50: 1.08 µM
  TGI: 5.35 µM
OVCAR-3 ovarian
  GI50: 0.701 µM
  TGI: 3.03 µM
